Results taken from patent US20240376096A1, “SMALL MOLECULE CYCLIN DEPENDENT KINASE 4/6 (CDK4/6) AND IKZF2 (HELIOS) DEGRADERS AND METHODS OF USE THEREOF” (DANA-FARBER CANCER INSTITUTE, INC., priority 2021, published 2024).

Assays:
Assay type in all cases: cell-based
[1] = target: T1, Helios (Homo sapiens, UniProt Q96SW2+Q9UKS7); experiment: Immunoblot of Helios levels in Jurkat cells; details: 1 μM; for degradation of Helios (immunoblot): 4 h; for protein abundance of Helios (immunoblot): 16 h
T1 construct: immunoblots from Jurkat cells treated with the indicated compounds; endogenous in cells; host or cells: Jurkat cells
T1 sequence (Q9UKS7 whole entry): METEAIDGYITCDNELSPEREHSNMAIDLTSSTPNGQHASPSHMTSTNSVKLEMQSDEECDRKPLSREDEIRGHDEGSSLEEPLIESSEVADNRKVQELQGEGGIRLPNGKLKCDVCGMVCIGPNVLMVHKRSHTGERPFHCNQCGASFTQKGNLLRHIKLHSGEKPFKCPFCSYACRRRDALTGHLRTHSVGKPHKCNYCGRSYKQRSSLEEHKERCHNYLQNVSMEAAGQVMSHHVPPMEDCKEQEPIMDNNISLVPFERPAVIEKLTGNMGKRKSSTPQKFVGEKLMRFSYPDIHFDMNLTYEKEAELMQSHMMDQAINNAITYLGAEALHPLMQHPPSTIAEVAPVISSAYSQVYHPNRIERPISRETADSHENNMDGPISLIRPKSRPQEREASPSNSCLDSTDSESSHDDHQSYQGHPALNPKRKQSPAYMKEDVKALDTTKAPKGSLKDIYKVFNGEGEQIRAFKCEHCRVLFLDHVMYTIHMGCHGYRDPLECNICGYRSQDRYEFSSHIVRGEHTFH
T1 sequence (Q96SW2 whole entry): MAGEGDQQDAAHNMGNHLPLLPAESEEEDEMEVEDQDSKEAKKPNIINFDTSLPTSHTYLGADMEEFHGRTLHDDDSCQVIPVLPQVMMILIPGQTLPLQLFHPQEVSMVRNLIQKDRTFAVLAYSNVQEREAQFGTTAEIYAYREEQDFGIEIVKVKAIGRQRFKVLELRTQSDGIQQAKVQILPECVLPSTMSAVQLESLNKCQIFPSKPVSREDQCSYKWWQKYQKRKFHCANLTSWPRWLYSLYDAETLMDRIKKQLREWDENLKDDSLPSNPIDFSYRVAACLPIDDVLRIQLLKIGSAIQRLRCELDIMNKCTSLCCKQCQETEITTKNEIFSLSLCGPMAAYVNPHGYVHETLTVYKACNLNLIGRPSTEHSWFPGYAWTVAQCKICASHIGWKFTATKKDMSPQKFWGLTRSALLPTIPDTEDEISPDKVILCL
T1 sequence (Q16531 whole entry partner): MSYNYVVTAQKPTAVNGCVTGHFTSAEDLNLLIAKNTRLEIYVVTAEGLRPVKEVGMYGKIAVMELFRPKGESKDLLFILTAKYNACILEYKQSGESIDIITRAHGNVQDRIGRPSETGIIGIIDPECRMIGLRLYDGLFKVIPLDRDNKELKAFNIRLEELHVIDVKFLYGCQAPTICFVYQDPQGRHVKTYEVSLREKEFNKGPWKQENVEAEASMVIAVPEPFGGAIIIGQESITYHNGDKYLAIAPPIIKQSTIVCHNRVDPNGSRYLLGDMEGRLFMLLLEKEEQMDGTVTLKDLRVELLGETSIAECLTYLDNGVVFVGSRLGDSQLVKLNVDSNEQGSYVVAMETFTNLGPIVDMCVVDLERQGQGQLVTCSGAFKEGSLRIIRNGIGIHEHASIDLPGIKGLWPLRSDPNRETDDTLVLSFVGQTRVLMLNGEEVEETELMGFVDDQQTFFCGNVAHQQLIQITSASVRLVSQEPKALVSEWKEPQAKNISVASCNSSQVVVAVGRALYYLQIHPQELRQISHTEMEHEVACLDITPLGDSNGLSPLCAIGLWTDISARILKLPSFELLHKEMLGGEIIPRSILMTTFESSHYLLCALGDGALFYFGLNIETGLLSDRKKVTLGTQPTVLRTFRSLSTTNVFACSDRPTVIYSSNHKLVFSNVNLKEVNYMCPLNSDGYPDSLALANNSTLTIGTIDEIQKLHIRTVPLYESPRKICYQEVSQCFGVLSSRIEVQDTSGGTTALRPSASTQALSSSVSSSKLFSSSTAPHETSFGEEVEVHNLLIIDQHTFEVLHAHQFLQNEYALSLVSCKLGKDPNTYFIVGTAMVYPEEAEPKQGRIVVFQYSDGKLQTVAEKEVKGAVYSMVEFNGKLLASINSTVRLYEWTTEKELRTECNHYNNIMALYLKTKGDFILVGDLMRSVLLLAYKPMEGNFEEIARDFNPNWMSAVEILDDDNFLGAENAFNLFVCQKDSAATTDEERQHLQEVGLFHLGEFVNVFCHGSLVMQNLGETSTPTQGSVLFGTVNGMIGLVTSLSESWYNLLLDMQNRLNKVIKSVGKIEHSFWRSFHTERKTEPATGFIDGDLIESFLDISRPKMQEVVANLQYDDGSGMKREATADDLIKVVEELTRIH
Protocol: (§1) FIG. 1A is a set of immunoblots of Jurkat cells treated with 1 μM of the indicated (DKY709 and Ia-1 to Ia-8) compounds for 4 hours, showing the levels of Ikaros, Helios, CDK4, CDK6, and tubulin for each compound.
(§2) FIG. 1B is a set of immunoblots of Jurkat cells treated with the Helios degrader DKY709, the triple degrader Ia-8, and the paired negative control compound 17 for 4 hours, showing the levels of Ikaros, Helios, CDK4, CDK6, and tubulin for each compound at 0.1 μM and 1 μM.
(§3) FIG. 2 is a set of immunoblots of Jurkat cells treated with the indicated compounds (palbociclib, DKY709, Ia-8, and 17) at 0.1 μM and 1 μM for 16 hours.
(§4) The structure of DKY709 (3-(5-(1-benzylpiperidin-4-yl)-1-oxoisoindolin-2-yl)piperidine-2,6-dione) is shown here: […]

[2] = target: T2, CDK4 (Homo sapiens, UniProt P11802); experiment: Immunoblot of CDK4 levels in Jurkat cells; details: 1 μM; for degradation of CDK4 (immunoblot): 4 h; for protein abundance of CDK4 (immunoblot): 16 h
T2 construct: immunoblots from Jurkat cells treated with the indicated compounds; endogenous in cells; host or cells: Jurkat cells
T2 sequence (P11802 whole entry): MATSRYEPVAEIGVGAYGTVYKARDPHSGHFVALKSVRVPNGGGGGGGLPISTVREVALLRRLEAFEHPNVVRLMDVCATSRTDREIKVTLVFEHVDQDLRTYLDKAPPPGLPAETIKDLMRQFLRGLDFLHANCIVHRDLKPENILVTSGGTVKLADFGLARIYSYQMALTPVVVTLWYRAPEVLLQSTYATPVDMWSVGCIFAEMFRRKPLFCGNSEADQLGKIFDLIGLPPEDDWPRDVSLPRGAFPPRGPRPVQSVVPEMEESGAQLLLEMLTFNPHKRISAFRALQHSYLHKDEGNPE
Protocol: as §1, §2, §3, §4

[3] = target: T3, CDK6 (Homo sapiens, UniProt Q00534); experiment: Immunoblot of CDK6 levels in Jurkat cells; details: 1 μM; for degradation of CDK6 (immunoblot): 4 h; for protein abundance of CDK6 (immunoblot): 16 h
T3 construct: immunoblots from Jurkat cells treated with the indicated compounds; endogenous in cells; host or cells: Jurkat cells
T3 sequence (Q00534 whole entry): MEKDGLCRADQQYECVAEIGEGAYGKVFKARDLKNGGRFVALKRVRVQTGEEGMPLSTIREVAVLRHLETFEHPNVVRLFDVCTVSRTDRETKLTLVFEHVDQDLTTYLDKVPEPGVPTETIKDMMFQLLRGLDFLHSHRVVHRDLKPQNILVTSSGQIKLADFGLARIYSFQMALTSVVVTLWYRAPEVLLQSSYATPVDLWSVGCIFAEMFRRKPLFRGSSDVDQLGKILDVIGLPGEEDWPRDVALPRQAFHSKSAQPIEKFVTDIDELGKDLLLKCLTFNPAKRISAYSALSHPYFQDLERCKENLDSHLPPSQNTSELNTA
Protocol: as §1, §2, §3, §4

[4] = target: T4, Ikaros (Homo sapiens, UniProt Q13422); experiment: Immunoblot of Ikaros levels in Jurkat cells; details: 1 μM, 4 h
T4 construct: endogenous in cells; host or cells: Jurkat cells
T4 sequence (Q96SW2 whole entry partner): as the sequence (Q96SW2 whole entry) above
T4 sequence (Q16531 whole entry partner): as the sequence (Q16531 whole entry partner) above
T4 sequence (Q13422 whole entry): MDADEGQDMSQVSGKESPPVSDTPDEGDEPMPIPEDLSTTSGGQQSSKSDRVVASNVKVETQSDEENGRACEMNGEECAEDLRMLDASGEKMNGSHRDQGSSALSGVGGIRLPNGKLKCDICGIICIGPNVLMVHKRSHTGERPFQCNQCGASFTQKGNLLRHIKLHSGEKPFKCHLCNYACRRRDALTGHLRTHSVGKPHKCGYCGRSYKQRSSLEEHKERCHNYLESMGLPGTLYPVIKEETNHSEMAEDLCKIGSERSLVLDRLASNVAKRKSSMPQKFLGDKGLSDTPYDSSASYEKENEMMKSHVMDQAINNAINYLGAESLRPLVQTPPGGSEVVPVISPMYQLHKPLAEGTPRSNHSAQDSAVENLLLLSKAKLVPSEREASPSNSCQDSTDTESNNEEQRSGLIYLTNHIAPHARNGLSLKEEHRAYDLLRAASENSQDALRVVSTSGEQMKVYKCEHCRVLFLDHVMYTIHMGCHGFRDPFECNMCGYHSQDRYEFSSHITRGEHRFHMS
Protocol: as §1, §2, §4

[5] = test system: phosphorylated Rb; experiment: Immunoblot of phosphorylated Rb in Jurkat cells; details: 1 μM, 16 h
Protocol: as §3

[6] = test system: Jurkat cells; experiment: Propidium iodide staining for DNA content (G1 arrest); details: 100 nM, 24 h
Protocol: FIG. 3A is a set of histograms and the quantification of the DNA content using propidium iodide (PI) staining after treatment of Jurkat cells with the indicated compounds (palbociclib, DKY709, 18, Ia-6, 16, Ia-8, and 17) at 100 nM for 24 h.
The structure of 18 (N-(4-(4-(6-((6-acetyl-8-cyclopentyl-5-methyl-7-oxo-7,8-dihydropyrido[2,3-d]pyrimidin-2-yl)amino)pyridin-3-yl)piperazin-1-yl)butyl)-2-((2-(1-methyl-2,6-dioxopiperidin-3-yl)-1,3-dioxoisoindolin-4-yl)amino)acetamide) is shown here: […]

[7] = test system: Jurkat cells; experiment: Cell proliferation quantified by CellTiter-Glo; details: Homo sapiens, 72 h, dose curve, 3 d, read-out: anti-proliferative activity
From the text: FIG. 3B is a graph of normalized luminescence versus concentration (log[inhibitor], M) of the indicated compounds (palbociclib, Ia-8, and 17) assessed by CellTiterGlo after treatment of Jurkat cells for 3 d.

[8] = test system: Jurkat cells; experiment: IL-2 levels by ELISA after TCR stimulation; details: Jurkat cells pre-treated with 1 μM for 24 h, then TCR-stimulated for 18 h
Protocol: FIG. 4 is a graph of [IL2] for the indicated compounds in Jurkat cells upon TCR-stimulation with a-CD3/CD28.
Quantification of IL-2 levels by ELISA from Jurkat cells pre-treated with 1 μM of the indicated compounds for 24 h and then TCR-stimulated for 18 h. Results are shown in FIG. 4 as mean±SD (untreated, n=3; other conditions, n=4) (*p<0.05). […] The structure of 19 (N-(4-(4-(6-((6-acetyl-8-cyclopentyl-5-methyl-7-oxo-7,8-dihydropyrido[2,3-d]pyrimidin-2-yl)amino)pyridin-3-yl)piperazin-1-yl)butyl)-2-((2-(2,6-dioxopiperidin-3-yl)-1,3-dioxoisoindolin-4-yl)oxy)acetamide) is shown here: […]

degradation of Helios (immunoblot) [1]	protein abundance of Helios (immunoblot) [1]	degradation of CDK4 (immunoblot) [2]	degradation of CDK6 (immunoblot) [3]	degradation of Ikaros (immunoblot) [4]	IC50 [7]	SMILES	protein abundance of CDK4 (immunoblot) [2]	protein abundance of CDK6 (immunoblot) [3]	levels of phosphorylated Rb (immunoblot) [5]	induction of G1 arrest [6]	IL-2 secretion [8]
had no degradation activity	had minimal effects	had no degradation activity	had no degradation activity	–	244 nM	CC(=O)c1c(C)c2cnc(Nc3ccc(N4CCN(CCOc5ccc(CN6CCC(c7ccc8c(c7)CN(C7CCC(=O)N(C)C7=O)C8=O)CC6)cc5)CC4)cn3)nc2n(C2CCCC2)c1=O (centres unmarked) [compound 17, 3-(5-(1-(4-(2-(4-(6-((6-acetyl-8-cyclopentyl-5-methyl-7-oxo-7,8-dihydropyrido[2,3-d]pyrimidin-2-yl)amino)pyridin-3-yl)piperazin-1-yl)ethoxy)benzyl)piperidin-4-yl)-1-oxoisoindolin-2-yl)-1-methylpiperidine-2,6-dione]	had minimal effects	had minimal effects	had minimal effects	did not	had activity similar to that of palbociclib
only induced degradation of Helios	induced Helios degradation	did not affect CDK4 or CDK6 abundance	did not affect CDK4 or CDK6 abundance	–	–	O=C1CCC(N2Cc3cc(C4CCN(Cc5ccccc5)CC4)ccc3C2=O)C(=O)N1 (centres unmarked) [DKY709, 3-(5-(1-benzylpiperidin-4-yl)-1-oxoisoindolin-2-yl)piperidine-2,6-dione, reference compound]	–	–	without affecting the levels of phosphorylated Rb	but not DKY709, induced G1 arrest	elevated IL-2 secretion, although it did not reach statistical significance
–	–	–	–	–	–	Nc1cccc2c1CN(C1CCC(=O)NC1=O)C2=O (centres unmarked) [Lenalidomide, reference compound]	–	–	–	–	elevated IL-2 secretion, although it did not reach statistical significance

SMILES	degradation of Helios (immunoblot) [1]	protein abundance of Helios (immunoblot) [1]	degradation of CDK4 (immunoblot) [2]	degradation of CDK6 (immunoblot) [3]	degradation of Ikaros (immunoblot) [4]	IC50 [7]	protein abundance of CDK4 (immunoblot) [2]	protein abundance of CDK6 (immunoblot) [3]	levels of phosphorylated Rb (immunoblot) [5]	induction of G1 arrest [6]	IL-2 secretion [8]
CC(=O)c1c(C)c2cnc(Nc3ccc(N4CCN(CCOc5ccc(CN6CCC(c7ccc8c(c7)CN(C7CCC(=O)NC7=O)C8=O)CC6)cc5)CC4)cn3)nc2n(C2CCCC2)c1=O (centres unmarked) [Ia-8, 3-(5-(1-(4-(2-(4-(6-((6-acetyl-8-cyclopentyl-5-methyl-7-oxo-7,8-dihydropyrido[2,3-d]pyrimidin-2-yl)amino)pyridin-3-yl)piperazin-1-yl)ethoxy)benzyl)piperidin-4-yl)-1-oxoisoindolin-2-yl)piperidine-2,6-dione]	induced the degradation of CDK4, CDK6, and Helios	induced the triple degradation of Helios, CDK4, and CDK6	induced the degradation of CDK4, CDK6, and Helios	induced the degradation of CDK4, CDK6, and Helios	but not Ikaros	166 nM	induced the triple degradation of Helios, CDK4, and CDK6	induced the triple degradation of Helios, CDK4, and CDK6	reduced the levels of phosphorylated Rb	induced G1 arrest	induced elevated levels of IL2 that were comparable to that of 18
